What all share (assay type): cell-based
Common to all, as to details: fibroblast culture medium; H2O2 500 μM 24 hours, then test material (31, 32: 100 μg/ml) 48 hours; ELISA
In general terms: ELISA stands for enzyme-linked immunosorbent assay.

One test relates to IL-8 (Interleukin 8). The test is described as follows: Test for inhibiting generation of IL-8 in H2O2-stimulated fibroblast (ELISA). How it is done:
(§1) Fibroblast (PromoCell, Germany) was inoculated in a 6-well culturing plate at a concentration of 1×10^5 cells, and cultured in a 5% CO2 incubator at 37° C. for 24 hours. The well was treated with H2O2 500 μM and stimulated for 24 hours, and then were treated with quercetin3-O-[3-O″-(E)-p-coumaroyl][β-D-glucopyranosyl-(1→3)-O-α-L-rhamnopyranosyl-(1→6)-O-β-D-glucopyranoside] (‘New Material 31’) and quercetin3-O-[3-O″-(E)-p-coumaroyl][α-L-rhamnopyranosyl-(1→6)-O-β-D-glucopyranoside]) (‘New Material 32’) at a concentration of 100 μg/ml, respectively, and reacted for 48 hours. After the reaction was finished, the culture medium was collected and the ELISA analysis was performed. Herein, α-bisabolol, which is the material typically used as an anti-inflammatory agent and abirritant, was used as a control. As PGE2, a kit of Assay Design® was used, and as IL-6 and IL-8, a kit of Endogen® was used, and the test was carried out according to the methods prescribed in the manuals of the respective companies. (‘31’ refers to New Material 31, and ‘32’ refers to New Material 32) Inhibition effect={1−(test sample−control)/(H2O2−control)}×100 <Equation 1>

For another test, the system named is PGE2 (Prostaglandin E2). In words: Test for inhibiting generation of PGE2 in H2O2-stimulated fibroblast (ELISA). How it is done: as §1
The test system of another test is IL-6 (Interleukin 6). In words: Test for inhibiting generation of IL-6 in H2O2-stimulated fibroblast (ELISA). How it is done:
as §1

Consider “α-bisabolol [a-bisabolol, reference compound]”, for which, in the test with IL-8 (Interleukin 8), the IL-8 was 200 pg/mL. The substance further came in with a PGE2 in the test with PGE2 (Prostaglandin E2) of 205 pg/mL. The IL-6 in the test on IL-6 (Interleukin 6) was 180 pg/mL.

The values are drawn from patent publication US11197878B2, “Anti-inflammatory composition including novel quercetin-based compound” (AMOREPACIFIC CORPORATION, priority 2017, dated 2021).
